According to US12570643B2, “3-aryloxy-3-five-membered heteroaryl propylamine compound, and crystal form and use thereof” (Shanghai Leado Pharmatech Co. Ltd., priority 2019, dated 2026):

Key:
[1] = system: formalin pain model in mice; assay: Formalin pain model in mice; assay type: in vivo, C57BL/6 mice
Description: 150 C57BL/6 mice (male, 9 weeks) were randomly divided into 15 groups with 10 mice for each group, and were used for the analgesic activity test of 3 compounds in the formalin pain model in mice: the compound I-1 group (compound I-1 prepared in Example 2, its hydrochloride was used in the experiment), the S-duloxetine group (its hydrochloride was used in the experiment) and the compound C1 group (compound C1 prepared in Comparative Example 1, its hydrochloride was used in the experiment), respectively. Before the start of the experiment, the mice were allowed to adapt to the experimental environment for 72 hours, during which there was no need to fast for food or water. The tested drugs were administrated by intraperitoneal injection, and the doses were as follows: • The compound I-1 group: blank Vehicle (blank normal saline control), 0.1 mg/kg, 0.5 mg/kg, 1 mg/kg, 5 mg/kg and 10 mg/kg; • The S-duloxetine group: blank Vehicle (blank normal saline control), 1 mg/kg, 5 mg/kg, 10 mg/kg and 20 mg/kg; • The Compound C1 group: blank Vehicle (blank normal saline control), 0.1 mg/kg, 0.5 mg/kg, 1 mg/kg, 5 mg/kg and 10 mg/kg.
After the administration, the mice were placed in a transparent, ventilated plexiglass cylinder, and 1 hour later, 20 μl of 4% formalin solution was injected into the left hind foot plantar of each group of mice with a micro-injector, and foot pain response in mice were recorded in real time with a miniature camera. The length of time of licking the left foot was used as an indicator of pain response, the licking time were observed and recorded during two periods of 0-10 min (phase I) and 10-60 min (phase II) respectively, for statistical analysis, and the half effective dose (ED50) of the 3 compounds were calculated: ED50 refers to the drug dose that reduces the licking time by half compared with the blank control group. The smaller the ED50 value is, the lower the effective analgesic dose of the compound is and the better its analgesic effect is.

[2] = system: postoperative pain model in rat; assay: Postoperative pain model in rat, mechanical hyperalgesia test; assay type: in vivo; settings: 10 mg/kg intramuscular injection
Description: Injection of compound I-1: 36.13 mg of compound I-1 prepared in Example 2 was weighed and added into 3.140 mL of normal saline, and well mixed by vortex;
The solvent of the test compound I-1 was normal saline, the administration dose was 10 mg/kg, and the administration method was intramuscular injection. 36.13 mg of the compound I-1 was weighed and added into 3.140 mL normal saline, and well mixed by vortex. The reference compound used in the experiment was bupivacaine injection, purchased from Shanghai Zhaohui Pharmaceutical Co., Ltd., in a dose of 10 mg/kg via intramuscular injection.
Aseptic operation was performed during surgery, surgical instruments (scissors, forceps, scalpel, surgical cotton, suture thread) were disinfected before the operation. The rats were anesthetized with sodium pentobarbital (50 mg/kg, intraperitoneal injection), and the toes of the rats were squeezed to confirm that the animals were completely anesthetized before the surgery. Ophthalmic ointment was applied to the animal's eyes to prevent the animal's cornea from drying out. Iodophor and 70% ethanol were used to disinfect the skin of the surgery area on the sole of the left hind foot three times, and the surgery was started after the skin was dried. Starting at 0.5 cm from the heel, a 1 cm long incision was made longitudinally toward the toe. After cutting the skin, the flexor digitorum brevis was lifted to make longitudinal blunt injury. After pressing to stop the bleeding, the wound was sutured. The surgical instruments were cleaned and sterilized with hot bead sterilizer. After the surgery, the animals were placed on an electric blanket and injected subcutaneously with 5 mL normal saline to prevent dehydration. When the animal was completely awake (free to move), put the animal back into the cage. […]
The rat was placed alone in a plexiglass box with a grid on the bottom of the box to ensure that the rat's feet can be tested. […] During the test, the animal's rapid foot shrinkage was recorded as a pain response. The animal's foot shrinkage when the test fiber left the animal's skin was also recorded as a pain response. If the animal moved or walked, it would not be recorded as the pain response, the test should be repeated. […] The mechanical hyperalgesia test results are recorded in the table of FIG. 10, in which pain response is indicated with an “x” and no pain response is indicated with an “o.”
Mechanical hyperalgesia was expressed as the paw withdrawal threshold (PWT) in the behavioral test of rats, which was calculated according to the following equation: 50% response threshold (g)=(10(Xf+k))/10,000 • Xf=the final test fiber value used in the test • K=table value (Chaplan et al. 1994, page 62) • □=Average difference 5. […]

**Q.** With `CNCC[C@@H](Oc1cccc2ccoc12)c1cccs1` [Compound I-1, (R)-3-(benzofuran-7-yloxy)-N-methyl-3-(thiophen-2-yl)propan-1-amine] as the compound, how does the ED50 ([1]; Mus musculus, ip, intraperitoneal, phase II (10-60 min), dose that halves licking time vs blank control, read-out: analgesic potency ED50 in phase II pain) read?
**A.** 0.26 mg/kg

**Q.** What about the “ED50 times stronger than that of C1 compound” value ([1]; phase II pain, formalin model in mice) of the same compound?
**A.** 8.5 times

**Q.** And the “PWT” value ([2]; 1 hour after administration, Normal Saline 3.561)?
**A.** 5.885 g

**Q.** What about the “PWT (g)” value ([2]; 2 hours after administration, Normal Saline 3.382) of the same compound?
**A.** 5.135. g
